Data as given in patent US7829666B2, “Maurotoxin, PI1 and HSTX1 derivatives” (Cellpep Pharma Inc., priority 2000, dated 2010).
Bridge positions count the residues as written; N and C are the ends. Square brackets hold non-standard residues; d marks the D form. Peptide text beside a SMILES is read from it. Abu = CC[C@H](N)C(=O)O

How the values were obtained:
[1] = Lethality/toxicity in C57/BL6 mice, intracerebroventricular injection; format: in vivo; conditions: mouse, in vivo
Description: (§1) The MTX derivatives, as well as the MTX structurally homologous Pi1 or HsTx1 derivatives, of the invention are thus of potential therapeutic value for treating mammalian (including human) pathologies that are associated with a dysfunctioning of Ca^2+-activated and/or voltage-gated Kv channel subtypes. Such pathologies include immune and/or neurological diseases like multiple sclerosis, Parkinson's and Alzheimer's diseases, both thought to be associated with a dysfunctioning of Ca^2+-activated and/or voltage-gated K^+ channel subtype(s). The axonal impulse propagation ensures a continued transmission of nervous signals to remote targets. In a number of neuropathies, the nervous conduction is either slowed down or locked. This could be linked to alteration or functional changes of myelinated fibres (demyelinisation or alteration of the membrane properties at the Ranvier nodes). Among these neuropathies are multiple sclerosis (central nervous system; CNS) and Guillain-Barr syndrome (peripheral nervous system). It is now well-admitted that alteration of the axonal function is related to the presence of voltage-gated (Kv) K^+ channels (there is a widespread distribution of Kv1.1 and Kv1.2 channel subtypes in nerve terminals throughout the brain, whereas Kv channels—independent of their subtypes—are considered to be ubiquitous, including in the peripheral nervous system), and possibly Ca^2+-activated K^+ channels. In the previously cited neuropathies, Ca^2+-activated K^+ channels and Kv channels are either abnormally exposed in demyelinated or inflammatory lesions, or over-expressed. Therefore, selective K^+-channel blockers, including Ca^2+-activated K^+ channel-acting and/or Kv-acting MTX/Pi1/HsTx1-derived peptides such as [Q15]-MTX, Pi1 amidated at C-terminus, [Abu9, 19, 29, 34]-MIX, are of potential therapeutic value as symptomatic therapy of multiple sclerosis and related neuropathies, as well as for use as selective immuno-suppressant drugs by their blocking action on Ca^2+-activated and/or Kv channels. Further, it can be speculated that such peptide blockers, in the CNS, could enhance transmitter release in pathways affected by progressive neurodegenerative diseases such as Alzheimer's disease.

[2] = system: Ca2+-activated K+ channels, e.g. apamin-sensitive SK channels; conditions: background statement; cited from earlier work
rat Kv1.3 channels = rat Kv1.3 channels (Rattus norvegicus, UniProt P15384); conditions: background statement; cited from earlier work
Chain of rat Kv1.3 channels (P15384 whole entry): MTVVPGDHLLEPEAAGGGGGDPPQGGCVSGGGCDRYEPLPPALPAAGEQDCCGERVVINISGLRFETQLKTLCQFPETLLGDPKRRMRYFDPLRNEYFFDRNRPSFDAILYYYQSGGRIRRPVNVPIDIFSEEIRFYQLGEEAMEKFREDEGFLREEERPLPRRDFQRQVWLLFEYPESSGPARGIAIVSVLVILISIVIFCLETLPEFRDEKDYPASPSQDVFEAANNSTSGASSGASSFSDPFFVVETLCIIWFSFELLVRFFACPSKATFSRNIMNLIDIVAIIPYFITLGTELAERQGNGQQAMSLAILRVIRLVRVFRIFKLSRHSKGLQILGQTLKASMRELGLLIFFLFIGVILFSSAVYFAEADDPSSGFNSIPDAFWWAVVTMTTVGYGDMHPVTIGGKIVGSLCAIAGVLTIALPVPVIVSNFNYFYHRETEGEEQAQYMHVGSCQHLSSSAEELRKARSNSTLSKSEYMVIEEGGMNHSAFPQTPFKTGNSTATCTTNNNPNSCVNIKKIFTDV

C57/BL6 mice = experiment: Lethality/toxicity in C57/BL6 mice, intracerebroventricular injection; format: in vivo
Description: as §1

[3] = target: T1, mammalian voltage-gated Kv1.2 channel subtype (Homo sapiens, UniProt P16389); conditions: background statement; picomolar or nanomolar concentration range; cited from earlier work
T1 sequence (P16389 whole entry): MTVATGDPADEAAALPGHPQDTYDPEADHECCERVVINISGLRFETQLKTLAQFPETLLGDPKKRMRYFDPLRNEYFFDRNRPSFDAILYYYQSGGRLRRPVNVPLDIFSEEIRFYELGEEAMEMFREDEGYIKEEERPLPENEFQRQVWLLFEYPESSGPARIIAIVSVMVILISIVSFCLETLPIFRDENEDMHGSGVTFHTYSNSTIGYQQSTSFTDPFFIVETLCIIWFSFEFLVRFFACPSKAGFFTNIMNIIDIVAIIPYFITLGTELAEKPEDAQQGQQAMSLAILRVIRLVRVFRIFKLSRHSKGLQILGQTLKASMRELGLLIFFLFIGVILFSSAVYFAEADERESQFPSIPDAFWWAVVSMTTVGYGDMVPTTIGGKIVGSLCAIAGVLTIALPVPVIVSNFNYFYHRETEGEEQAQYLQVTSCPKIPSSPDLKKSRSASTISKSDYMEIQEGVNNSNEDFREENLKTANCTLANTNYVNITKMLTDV

[4] = system: Ca2+-activated K+ channels; experiment: Activity of MTX analog on Ca2+-activated K+ channels; format: cell-based
Description: (§2) In one preferred derivative, the substitution of the MTX half-cystine residues (by amino butyrate derivatives) located at positions 9, 19, 29, and 34 (corresponding by numbers to C2, C4, C6, and C8) results in a two disulfide-bridged MTX analog, i.e. VSCTGSKDAbuYAPCRKQTGAbuPNAKCINKSAbuKCYGAbu-NH2 [SEQ. ID NO. 8], with novel, non-native arrangement of the half-cystine pairings (Cys3-Cys24 and Cys13-Cys31).

[5] = target: T1, mammalian voltage-gated Kv1.2 channel subtype; experiment: Blocking activity on voltage-gated Kv1.2 channel; format: cell-based
Description: as §2
An alternative approach to replacement of Cys residues with Abu is the replacement of one or two amino acid residues in natural MTX with other residues which prevent the folding of the molecule in such a way that the unconventional C1-C5, C2-C6, C3-C7 and C4-C8 disulfide bridge arrangement can occur. For instance, if neither of the residues at positions 32 and 33 is a Gly or Pro residue, the folding is altered in such a way that the MTX derivative adopts the conventional C1-C5, C2-C6, C3-C7 and C4-C8 of Pi1 and HsTx1. In particular, replacement of the Gly residue at position 33 by an Ala residue substitution, forming [A33]-MTX [SEQ. ID NO. 4], is effective. Substitution of Arg14 and/or Lys15 by Gln to give [Q14]-MTX [SEQ. ID NO. 5], [Q15]-MTX [SEQ. ID NO. 6] or [Q14,Q15]-MTX [SEQ. ID NO. 7] also induces half-cystine pairings between Cys3-Cys24, Cys9-Cys29, Cys13-Cys31 and Cys19-Cys34.

In the case of `CC[C@H](C)[C@@H]1NC(=O)[C@@H]2CSSC[C@H](NC(=O)[C@H](CCCCN)NC(=O)[C@@H](NC(=O)[C@@H](N)CC(C)C)C(C)C)C(=O)N[C@@H](CCCNC(=N)N)C(=O)NCC(=O)N[C@@H]([C@@H](C)O)C(=O)N[C@@H](CO)C(=O)N[C@@H](CC(=O)O)C(=O)N[C@H]3CSSC[C@H](NC(=O)[C@H](CCSC)NC(=O)[C@H](CCCNC(=N)N)NC(=O)[C@H](CC(N)=O)NC1=O)C(=O)N[C@@H](CCCCN)C(=O)N[C@H]1CSSC[C@H](NC(=O)[C@@H]4CCCN4C(=O)[C@H](CCCNC(=N)N)NC(=O)CNC3=O)C(=O)N[C@@H](CCC(N)=O)C(=O)N[C@@H](CCC(N)=O)C(=O)N[C@@H](CCC(N)=O)C(=O)N[C@@H]([C@@H](C)O)C(=O)NCC(=O)N[C@@H](CSSC[C@@H](C(N)=O)NC(=O)CNC(=O)[C@H](Cc3ccc(O)cc3)NC1=O)C(=O)N1CCC[C@H]1C(=O)N[C@@H](CC(N)=O)C(=O)N[C@@H](CO)C(=O)N[C@@H](CCCCN)C(=O)N2` [Pi1] (H-LVKCRGTSDCGRPCQQQTGCPNSKCINRMCKCYGC-NH2; disulfide 4-25, 10-30, 14-32, 20-35; N-terminus and C-terminus assumed), the LD50 [1] is given as 10 µg/kg, the “activity on Ca2+-activated K+ channels, e.g. apamin-sensitive SK channels” value (from here on “activity … e.g. apamin-sensitive SK channels”) [2] is given as “active” and the “activity on rat Kv1.3 channels” value (rat Kv1.3 channels) is given as “active on rat Kv1.3 channels contrary to synthetic Pi1”.
With `CC[C@H](C)[C@@H]1NC(=O)[C@@H]2CSSC[C@H](NC(=O)[C@H](CO)NC(=O)[C@@H](N)C(C)C)C(=O)N[C@@H]([C@@H](C)O)C(=O)NCC(=O)N[C@@H](CO)C(=O)N[C@@H](CCCCN)C(=O)N[C@@H](CC(=O)O)C(=O)N[C@H]3CSSC[C@H](NC(=O)[C@H](CO)NC(=O)[C@H](CCCCN)NC(=O)[C@H](CC(N)=O)NC1=O)C(=O)N[C@@H](CCCCN)C(=O)N[C@H]1CSSC[C@H](NC(=O)[C@@H]4CCCN4C(=O)[C@H](C)NC(=O)[C@H](Cc4ccc(O)cc4)NC3=O)C(=O)N[C@@H](CCCNC(=N)N)C(=O)N[C@@H](CCC(N)=O)C(=O)N[C@@H](CCC(N)=O)C(=O)N[C@@H]([C@@H](C)O)C(=O)NCC(=O)N[C@@H](CSSC[C@@H](C(N)=O)NC(=O)CNC(=O)[C@H](Cc3ccc(O)cc3)NC1=O)C(=O)N1CCC[C@H]1C(=O)N[C@@H](CC(N)=O)C(=O)N[C@@H](C)C(=O)N[C@@H](CCCCN)C(=O)N2` [[Q15]-MTX] (H-VSCTGSKDCYAPCRQQTGCPNAKCINKSCKCYGC-NH2; disulfide 3-24, 9-29, 13-31, 19-34) the lethality/toxicity (C57/BL6 mice; injected intracerebroventricularly at active concentrations) was “neither lethal nor toxic”.
In the case of `CC[C@H](C)[C@@H]1NC(=O)[C@@H]2CSSC[C@H](NC(=O)[C@H](CO)NC(=O)[C@@H](N)C(C)C)C(=O)N[C@@H]([C@@H](C)O)C(=O)NCC(=O)N[C@@H](CO)C(=O)N[C@@H](CCCCN)C(=O)N[C@@H](CC(=O)O)C(=O)N[C@@H](CSSC[C@@H](C(=O)N[C@@H](CCCCN)C(=O)N[C@H]3CSSC[C@@H](C(N)=O)NC(=O)CNC(=O)[C@H](Cc4ccc(O)cc4)NC3=O)NC(=O)[C@H](CO)NC(=O)[C@H](CCCCN)NC(=O)[C@H](CC(N)=O)NC1=O)C(=O)N[C@@H](Cc1ccc(O)cc1)C(=O)N[C@@H](C)C(=O)N1CCC[C@H]1C(=O)N[C@H]1CSSC[C@H](NC(=O)CNC(=O)[C@H]([C@@H](C)O)NC(=O)[C@H](CCC(N)=O)NC(=O)[C@H](CCCCN)NC(=O)[C@H](CCCNC(=N)N)NC1=O)C(=O)N1CCC[C@H]1C(=O)N[C@@H](CC(N)=O)C(=O)N[C@@H](C)C(=O)N[C@@H](CCCCN)C(=O)N2` [MTX] (H-VSCTGSKDCYAPCRKQTGCPNAKCINKSCKCYGC-NH2; disulfide 3-24, 9-29, 13-19, 31-34), the LD50 ([1]; other: intracerebroventricular) is given as 4 µg/kg, the “activity on voltage-gated K+ channel subtypes including Kv1.2” value [3] is given as “active” and the “activity … e.g. apamin-sensitive SK channels” value [2] is given as “active”. For the same compound, the “activity on rat Kv1.3 channels” value (rat Kv1.3 channels) was “active”.
In the case of HsTx1, the “activity … e.g. apamin-sensitive SK channels” value [2] is given as “inactive”.
With `CC[C@H](NC(=O)CNC(=O)[C@H](Cc1ccc(O)cc1)NC(=O)[C@@H]1CSSC[C@@H]2NC(=O)[C@@H]3CCCN3C(=O)[C@H](C)NC(=O)[C@H](Cc3ccc(O)cc3)NC(=O)[C@H](CC)NC(=O)[C@H](CC(=O)O)NC(=O)[C@H](CCCCN)NC(=O)[C@H](CO)NC(=O)CNC(=O)[C@H]([C@@H](C)O)NC(=O)[C@@H](NC(=O)[C@H](CO)NC(=O)[C@@H](N)C(C)C)CSSC[C@H](NC(=O)[C@H](CCCCN)NC(=O)[C@H](C)NC(=O)[C@H](CC(N)=O)NC(=O)[C@@H]3CCCN3C(=O)[C@H](CC)NC(=O)CNC(=O)[C@H]([C@@H](C)O)NC(=O)[C@H](CCC(N)=O)NC(=O)[C@H](CCCCN)NC(=O)[C@H](CCCNC(=N)N)NC2=O)C(=O)N[C@@H]([C@@H](C)CC)C(=O)N[C@@H](CC(N)=O)C(=O)N[C@@H](CCCCN)C(=O)N[C@@H](CO)C(=O)N[C@@H](CC)C(=O)N[C@@H](CCCCN)C(=O)N1)C(N)=O` [[Abu9, 19, 29, 34]-MTX, VSCTGSKDAbuYAPCRKQTGAbuPNAKCINKSAbuKCYGAbu-NH2] (H-VSCTGSKD[Abu]YAPCRKQTG[Abu]PNAKCINKS[Abu]KCYG[Abu]-NH2; disulfide 3-24, 13-31) the lethality/toxicity (C57/BL6 mice; injected intracerebroventricularly, up to 1.25 mg/kg) was “neither lethal nor toxic”, the “activity on Ca2+-activated K+ channels” value [4] was “remains active” and the IC50 [5] was 42 nM.
